Columns and labels:
[1] = tested on: E. coli strain JM109 transformants; experiment: Toxicity of vanillin with IPTG-induced expression of UGT85B1 or AS, growth on plates; format: cell-based; conditions: JM109 [pJH410], IPTG induction No
[2] = tested on: E. coli strain KO1418 transformants; experiment: as above; format: cell-based; set-up: key: −: No growth; +: weak growth; ++: good growth; conditions: KO1418 [pJH410]

Structure (SMILES): COc1cc(C=O)ccc1O [Vanillin, vanillin]
- growth ([1]; 0.08% vanillin): ++
- growth ([1]; 0.2% vanillin): −
- growth ([2]; 0.08% vanillin, IPTG induction Yes): ++
- growth ([2]; 0.12% vanillin, IPTG induction No): ++
- growth ([2]; 0.2% vanillin, IPTG induction Yes): ++
